Experimental data from patent US20050101783A1, “N-(heterocycle-methyl)alkylamine derivative, process for producing the same, and bactericide” (priority 2000, published 2005).

Key:
Assay type in all cases: in vivo
cucumber powdery mildew = experiment: Preventive effect of cucumber powdery mildew (wettable powder sprayed on potted cucumber, preventive value); settings: wettable powder suspended at 100 mg/l, sprayed on potted cucumber at 100 l/10 a; morbidity investigated 9th to 14th day after inoculation
Description: (Preventive Effect of Cucumber Powdery Mildew)
The wettable powders obtained by using each compound were diluted with water and were suspended at a predetermined concentration (100 mg/l) and the solution was sprayed over the first to second leaf stage-cucumber (variety: “Sagamihanpakufushinari”) cultivated by using a square plastic pot (size: 6.4 cm×6.4 cm) at a rate of 100 1/10 a.
After the sprayed leaves were air-dried, the spore was inoculated over the aforementioned air-dried leaves from the contracted leaves with a brush, and the contraction was performed in a glass greenhouse (temperature: 20 to 24° C. and relative humidity: 20 to 70 RH). The morbidity rate was investigated based on the same investigation standard as that in the preventive effect test of the cucumber gray mold on 9th to 14th day after the inoculation, and the preventive value was calculated according to the aforementioned formula 2.

[1] = system: Erysiphe graminis f. sp tritici; experiment: Preventive effect test of wheat powdery mildew (wettable powder sprayed on potted wheat, preventive value); settings: wettable powder suspended at 250 mg/l, sprayed on potted wheat at 100 l/10 a; morbidity investigated 9th to 14th day after inoculation
Description: (Preventive Effect Test of Erysiphe graminis f. sp […])
The wettable powders obtained by using each compound were diluted with water and were suspended at a predetermined concentration (250 mg/l) and the solution was sprayed over the first to second leaf stage-wheat (variety. Agriculture and Forestry No. 64) cultivated by using a square plastic pot (size: 6.4 cm×6.4 cm) at a rate of 100 1/10 a (are).
After the sprayed leaves were air-dried, the suspension of the spore of Erysiphe graminis f. sp tritici germ sampled from the contracted leaves were sprayed and inoculated over the sprayed leaf after air-dried, the leaves were kept at 20 to 24° C. under a high-humidity condition for 24 hours, then, the leaves were subjected to still standing in a greenhouse (temperature: 20 to 24° C. and relative humidity: 20 to 70 RH). The morbidity rate was investigated based on the following investigation standard on 9th to 14th day after the inoculation and the preventive value was calculated according to the following formula 1.

cucumber gray mold = experiment: Preventive effect test of cucumber gray mold (wettable powder sprayed on potted cucumber, preventive value); settings: wettable powder suspended at 250 mg/l, sprayed on potted cucumber at 100 l/10 a; morbidity investigated 4th to 6th day after inoculation
Description: (Preventive Effect Test of Cucumber Gray Mold)
The wettable powders obtained by using each compound were diluted with water and were suspended at a predetermined concentration (250 mg/l) and the solution was sprayed over the first to second leaf stage-cucumber (variety: “Sagamihanpakufushinari”) cultivated by using a square plastic pot (size: 6.4 cm×6.4 cm) at a rate of 100 1/10 a.
After the sprayed leaves were air-dried, a paper disk where the solution of the spore of the gray mold suspended with water was impregnated was put on the aforementioned sprayed leaves, and the leaves were contracted in a glass greenhouse (temperature: 20 to 24° C. and relative humidity: 20 to 70 RH). The morbidity rate was investigated based on the following investigation standard on 4th to 6th day after the inoculation and the preventive value was calculated according to the following formula 2.

| SMILES | Preventive Value (%) (cucumber powdery mildew) | Preventive Value (%) [1] | Preventive Value (%) (cucumber gray mold) |
| --- | --- | --- | --- |
| CCC(=NOC)c1ccc(CC(C)(C)CN(C)Cc2ccc(Cl)nc2)cc1 [Compound I-121] | 100% | 100% | 100% |
| COC(C)c1ccc(CC(C)(C)CN(C)Cc2ccc(Cl)nc2)cc1 (stereo not drawn) [Compound I-95] | 100% | 100% | 100% |
| CN(Cc1ccc(F)nc1)CC(C)(C)Cc1ccc(OC(F)(F)F)cc1 [Compound I-140] | 100% | 100% | 100% |
| CC(CCCc1ccc(C(C)(C)C)cc1)CN(C)Cc1ccc(Cl)nc1 (stereo not drawn) [Compound I-52] | – | – | 100% |
| CN(Cc1ccc(Cl)nc1)CC(C)(C)CCc1cccc(Oc2ccccc2)c1 [Compound I-55] | 100% | – | – |
| CC(CCc1ccc(Cl)cc1Cl)CN(C)Cc1ccc(Cl)nc1 (stereo not drawn) [Compound I-56] | 100% | 100% | – |
| CN(Cc1cccnc1)CC(C)(C)Cc1ccc(C(C)(C)C)cc1 [Compound I-16] | – | – | 100% |
| CN(Cc1ccc(Cl)nc1)CC(C)(C)Cc1cccc(Oc2cccc(C(F)(F)F)c2)c1 [Compound I-40] | – | – | 100% |
| CCOCc1ccc(CC(C)(C)CN(C)Cc2ccc(Cl)nc2)cc1 [Compound I-89] | 100% | 100% | 100% |
| CC(CCCC1CCC(C(C)(C)C)CC1)CN(C)Cc1ccc(Cl)nc1 (stereo not drawn) [Compound I-66] | – | – | 100% |
| CN(Cc1ccc(Cl)nc1)CC(C)(C)Cc1ccc(Cl)cc1 [Compound I-28] | – | 100% | 100% |
| CC(CC1CCC(C(C)(C)C)CC1)CN(C)Cc1ccc(Cl)nc1 (stereo not drawn) [Compound I-62, N-[3-(4-t-butylcyclohexyl)-2-methylpropyl]-6-chloro-N-methyl-3-pyridylmethylamine] | – | 100% | 100% |
| CN(Cc1ccc(Cl)nc1)CC(C)(C)Cc1ccc(OCC(F)(F)C(F)F)cc1 [Compound I-84] | 100% | 100% | 100% |
| CN(Cc1ccc(Cl)nc1)CC(C)(C)Cc1ccc(Oc2ccccc2)cc1 [Compound I-35] | – | – | 100% |
| CN(Cc1ccc(Cl)nc1)CC(C)(C)Cc1ccc(OC(C)(C)C)cc1 [Compound I-73] | 100% | 100% | 100% |
| CN(Cc1ccc(Br)nc1)CC(C)(C)Cc1ccc(OC(F)(F)F)cc1 [Compound I-139] | 100% | 100% | 100% |
| CCON=C(C)c1ccc(CC(C)(C)CN(C)Cc2ccc(Cl)nc2)cc1 [Compound I-117] | 100% | 100% | 100% |
| COCc1ccc(CC(C)(C)CN(C)Cc2ccc(Cl)nc2)cc1 [Compound I-88] | 100% | 100% | 100% |
| CN(Cc1cccnc1Cl)CC(C)(C)Cc1ccc(C(C)(C)C)cc1 [Compound I-20] | – | – | 100% |
| CN(Cc1ccc(Cl)nc1)CC(C)(C)CCc1ccc(C(C)(C)C)cc1 [Compound I-51] | – | – | 100% |
| CN(Cc1ccc(Cl)nc1)CC(C)(C)Cc1ccc(Cl)cc1Cl [Compound I-31] | – | – | 100% |
| CN(Cc1ccc(Cl)nc1)CC(C)(C)CC1CCC(C(C)(C)C)CC1 (stereo not drawn) [Compound I-63] | – | – | 100% |
| CC(Cc1ccc(Cl)cc1Cl)CN(C)Cc1ccc(Cl)nc1 (stereo not drawn) [Compound (a), 6-chloro-N-methyl-N-[2-methyl-3-(2,4-dichlorophenyl)propyl]-3-pyridylmethylamine, reference compound] | 70% | 60% | 80% |
| CN(Cc1ccc(Cl)nc1)CC(C)(C)Cc1ccc(OCC(F)(F)C(F)(F)F)cc1 [Compound I-85] | 100% | 100% | 100% |
| CN(Cc1ccc(Cl)nc1)CC(C)(C)Cc1ccc2c(c1)OC(F)(F)O2 [Compound I-49] | 100% | 100% | – |

| SMILES | Preventive Value (%) (cucumber powdery mildew) | Preventive Value (%) [1] | Preventive Value (%) (cucumber gray mold) |
| --- | --- | --- | --- |
| CN(Cc1ccc(Cl)nc1)CC(C)(C)Cc1ccc(OC(F)(F)C(F)F)cc1 [Compound I-83] | 100% | 100% | 100% |
| CN(Cc1ccc(Cl)nc1)CC(C)(C)Cc1ccc(OCC(F)(F)F)cc1 [Compound I-82] | 100% | 100% | 100% |
| CN(Cc1ccc(Cl)nc1)CC(C)(C)Cc1ccc(F)c(Oc2ccccc2)c1 [Compound I-38] | – | – | 100% |
| Cc1ccc(Oc2cccc(CC(C)(C)CN(C)Cc3ccc(Cl)nc3)c2)cc1 [Compound I-39] | – | – | 100% |
| CC(C)Oc1ccc(CC(C)(C)CN(C)Cc2ccc(Cl)nc2)cc1 [Compound I-74] | 100% | 100% | 100% |
| CN(Cc1cnc(Cl)s1)CC(C)(C)Cc1ccc(OC(F)(F)F)cc1 [Compound I-142] | 100% | 100% | 100% |
| CN(Cc1ccc(Cl)nc1)CC(C)(C)Cc1cc(Cl)ccc1Cl [Compound I-32] | – | – | 100% |
| CN(Cc1ccc(Cl)nc1)CC(C)(C)Cc1cc(Cl)cc(Cl)c1 [Compound I-34] | – | – | 100% |
| CC(C)Oc1cccc(CC(C)(C)CN(C)Cc2ccc(Cl)nc2)c1 [Compound I-27] | – | 100% | – |
| CCOC(C)c1ccc(CC(C)(C)CN(C)Cc2ccc(Cl)nc2)cc1 (stereo not drawn) [Compound I-96] | 100% | 100% | 100% |
| CN(Cc1ccc(C(F)(F)F)nc1)CC(C)(C)Cc1ccc(OC(F)(F)F)cc1 [Compound I-141] | 100% | 100% | 100% |
| CN(Cc1ccc(Cl)nc1)CC(C)(C)Cc1cccc(Oc2ccccc2)c1 [Compound I-36] | – | – | 100% |
| CC(CCC1CCC(C(C)(C)C)CC1)CN(C)Cc1ccc(Cl)nc1 (stereo not drawn) [Compound I-64] | – | – | 100% |
| CN(Cc1ccc(Cl)nc1)CC(C)(C)Cc1cccc(OC(F)(F)F)c1 [Compound I-46] | – | – | 100% |
| CN(Cc1ccc(F)nc1)CC(C)(C)Cc1ccc(C(C)(C)C)cc1 [Compound I-19] | 100% | 100% | 100% |
| CC(Cc1cccc(Cl)c1)CN(C)Cc1ccc(Cl)nc1 (stereo not drawn) [Compound (b), 6-chloro-N-methyl-N-[2-methyl-3-(3-chlorophenyl)propyl]-3-pyridylmethylamine, reference compound] | 80% | 70% | 30% |
| CON=C(C)c1ccc(CC(C)(C)CN(C)Cc2ccc(Cl)nc2)cc1 [Compound I-116] | 100% | 100% | 100% |
| CN(Cc1ccc(Cl)nc1)CC(C)(C)Cc1cccc(Cl)c1 [Compound I-29] | – | – | 100% |
| CC(CCc1cccc(Oc2ccccc2)c1)CN(C)Cc1ccc(Cl)nc1 (stereo not drawn) [Compound I-54] | – | – | 100% |
| CC(CCc1ccc(C(C)(C)C)cc1)CN(C)Cc1ccc(Cl)nc1 (stereo not drawn) [Compound I-50] | – | – | 100% |
| CN(Cc1ccc(Cl)nc1)CC(C)(C)Cc1cccc(OC(F)(F)C(F)F)c1 [Compound I-48] | – | – | 100% |
| Cc1ncc(CN(C)CC(C)(C)Cc2ccc(C(C)(C)C)cc2)cn1 [Compound I-21] | – | – | 100% |
| CN(Cc1ccc(Cl)nc1)CC(C)(C)Cc1ccc(C(C)(C)C)cc1 [Compound I-25] | – | – | 100% |
| CN(Cc1ccc(Cl)nc1)CC(C)(C)Cc1ccc(Cl)c(Cl)c1 [Compound I-33] | – | – | 100% |
